Experimental data published in US5602106A, “16-membered macrolide derivatives” (priority 1993, dated 1997).
Converted amounts (≈) assume the structure as drawn. Read-outs that look alike come from different tables or passages of the source.

Key:
Assay type in all cases: cell-based
test strains = experiment: Antimicrobial activity in vitro, test strains overall; settings: for antimicrobial activities compared with compound (58): vs compound (58); for antimicrobial activities in comparison with rokitamycin: vs rokitamycin; for improvement of MIC values over corresponding compounds with free 3"-hydroxyl (midecamycin M1, leucomycin V): most of the test strains
Method: (§1) The effect of the first aspect of the present invention resides in the creation of a novel and useful 16-membered macrolide derivative. Antimicrobial activities of the compounds of the present invention were determined by measuring minimum inhibitory concentration (MIC). Minimum inhibitory concentration was determined by the agar plate dilution method in the following manner.
(§2) Test strains were subjected to seed culture using Sensitivity test broth (STB, Nissui Pharmaceutical) except that the strains belonging to the genus Streptococcus, Branhamella and Haemophilus were cultured on blood agar plate. A 5 μl portion of cell suspension of the test strains having about 10^6 CFU/ml was inoculated into Sensitivity disk agar (SDA, Nissui Pharmaceutical) supplemented with 5% horse blood and incubated at 37° C. for 20 hours. Then, MIC was measured. […] Antimicrobial activities in vitro of the compounds (1) and (2) are shown in Table 1, and those of the compounds (3) and (4) in Table 3.

S. aureus 209P JC-1 = experiment: MIC, agar plate dilution method; settings: Staphylococcus aureus, 209P, 20 h
Method: as §1, §2

E. faecalis W-73 = experiment: MIC, agar plate dilution method; settings: Enterococcus faecalis, W73, 20 h, read-out: Antimicrobial activity (MIC)
Method: as §1, §2

S. aureus MS15009/pMS98 = experiment: MIC, agar plate dilution method; settings: Staphylococcus aureus, MS15009/PMS98, 20 h, read-out: Antimicrobial activity (MIC), 37° C., 20 hours, SDA with 5% horse blood
Method: as §1, §2

H. influenzae Type b = experiment: MIC, agar plate dilution method; settings: Haemophilus influenzae, 20 h, read-out: Antimicrobial activity (MIC), 37° C., 20 hours, SDA with 5% horse blood
Method: as §1, §2

M. luteus ATCC9341 = experiment: MIC, agar plate dilution method; settings: Micrococcus luteus, ATCC9341; 37° C., 20 hours, SDA with 5% horse blood; read-out: Antimicrobial activity (MIC)
Method: as §1, §2

S. aureus M133 = experiment: MIC, agar plate dilution method; settings: Staphylococcus aureus, M133, 20 h
Method: as §1, §2

S. aureus MS15027 = experiment: MIC, agar plate dilution method; settings: Staphylococcus aureus, MS15027, 20 h, read-out: Antimicrobial activity (MIC), 37° C., 20 hours, SDA with 5% horse blood
Method: as §1, §2

S. aureus M126 = experiment: MIC, agar plate dilution method; settings: Staphylococcus aureus, 37° C., 20 hours, SDA with 5% horse blood, read-out: Antimicrobial activity (MIC)
Method: as §1, §2

K. pneumoniae PCI602 = experiment: MIC, agar plate dilution method; settings: Klebsiella pneumoniae, PCI602, 20 h, 37° C., SDA with 5% horse blood, read-out: Antimicrobial activity (MIC)
Method: as §1, §2

S. epidermidis ATCC14990 = experiment: MIC, agar plate dilution method; settings: Staphylococcus epidermidis
Method: as §1, §2

E. coli NIHJ JC-2 = experiment: MIC, agar plate dilution method; settings: Escherichia coli, NIHJJC2, 20 h, 37° C., SDA with 5% horse blood, read-out: Antimicrobial activity (MIC)
Method: as §1, §2

S. pneumoniae IP692 = experiment: MIC, agar plate dilution method; settings: Streptococcus pneumoniae, IP692, 20 h
Method: as §1, §2

B. catarrhalis W-0500 = experiment: MIC, agar plate dilution method; settings: Moraxella catarrhalis
Method: as §1, §2

S. aureus MS15009/pMS99 = experiment: MIC, agar plate dilution method; settings: Staphylococcus aureus, MS15009/PMS99, 20 h, read-out: Antimicrobial activity (MIC)
Method: as §1, §2

S. pyogenes Cook = experiment: MIC, agar plate dilution method; settings: Streptococcus pyogenes
Method: as §1, §2

S. aureus MS15026 = experiment: MIC, agar plate dilution method; settings: Staphylococcus aureus, 37° C., 20 hours, SDA with 5% horse blood, read-out: Antimicrobial activity (MIC)
Method: as §1, §2

H. influenzae 9334 = experiment: MIC, agar plate dilution method; settings: Haemophilus influenzae, 9334, 20 h, read-out: Antimicrobial activity (MIC), 37° C., 20 hours, SDA with 5% horse blood
Method: as §1, §2

B. catarrhalis W-0506 = experiment: MIC, agar plate dilution method; settings: Moraxella catarrhalis
Method: as §1, §2

S. pneumoniae Type 1 = experiment: MIC, agar plate dilution method; settings: Streptococcus pneumoniae, TYPE1; 37° C., 20 hours, SDA with 5% horse blood; read-out: Antimicrobial activity (MIC)
Method: as §1, §2

[1] = test system: clinically important Gram-positive bacteria; experiment: Antimicrobial activity / growth inhibition
Method: as §1, §2

[2] = 37° C., 20 hours, SDA with 5% horse blood, read-out: Antimicrobial activity (MIC)
[3] = read-out: Antimicrobial activity (MIC), 37° C., 20 hours, SDA with 5% horse blood
[4] = ATCC14990, 20 h, read-out: Antimicrobial activity (MIC), 37° C., 20 hours, SDA with 5% horse blood
[5] = W0500, 20 h, read-out: Antimicrobial activity (MIC), 37° C., 20 hours, SDA with 5% horse blood
[6] = W0506, 20 h, read-out: Antimicrobial activity (MIC), 37° C., 20 hours, SDA with 5% horse blood
[7] = W0500, 37° C., 20 hours, SDA with 5% horse blood, read-out: Antimicrobial activity (MIC)
[8] = W0506, 37° C., 20 hours, SDA with 5% horse blood, read-out: Antimicrobial activity (MIC)

Row | SMILES | MIC (S. aureus 209P JC-1; [2]) [µg/mL] | MIC (E. faecalis W-73) [µg/mL] | MIC (S. aureus MS15009/pMS98) [µg/mL] | MIC (H. influenzae Type b) [µg/mL] | MIC (M. luteus ATCC9341) [µg/mL] | MIC (S. aureus M133; [3]) [µg/mL] | MIC (S. aureus MS15027) [µg/mL] | MIC (S. aureus M126) [µg/mL] | MIC (K. pneumoniae PCI602) [µg/mL] | MIC (S. epidermidis ATCC14990; [4]) [µg/mL] | MIC (E. coli NIHJ JC-2) [µg/mL] | MIC (S. pneumoniae IP692; [2]) [µg/mL] | MIC (B. catarrhalis W-0500; [5]) [µg/mL] | MIC (S. aureus MS15009/pMS99) [µg/mL] | MIC (S. pyogenes Cook; [2]) [µg/mL] | MIC (S. aureus MS15026) [µg/mL] | MIC (H. influenzae 9334) [µg/mL] | MIC (B. catarrhalis W-0506; [6]) [µg/mL] | MIC (S. pneumoniae Type 1) [µg/mL] | antimicrobial activities (in words) [1] | also measured
1 | CO[C@@H]1[C@@H](O[C@@H]2O[C@H](C)[C@@H](O[C@H]3C[C@@](C)(OC)[C@@H](OC(=O)C(C)C)[C@H](C)O3)[C@H](N(C)C)[C@H]2O)[C@@H](CC=O)C[C@@H](C)[C@@H](O)/C=C/C=C/C[C@@H](C)OC(=O)C[C@H]1O [(53), 4"-O-isobutyryl-3"-Omethylleucomycin V] | 0.05 (≈ 0.0636 µM) | 0.78 (≈ 0.992 µM) | 0.2 (≈ 0.254 µM) | 6.25 (≈ 7.95 µM) | < 0.025 | 0.2 (≈ 0.254 µM) | 0.2 (≈ 0.254 µM) | > 100 | > 100 | 0.2 (≈ 0.254 µM) | > 100 | < 0.025 | 0.2 (≈ 0.254 µM) | > 100 | < 0.025 | > 100 | 0.39 (≈ 0.496 µM) | 0.2 (≈ 0.254 µM) | < 0.025 | markedly strong microbial activities | antimicrobial activities compared with compound (58) (test strains): slightly superior antimicrobial activities; antimicrobial activities in comparison with rokitamycin (test strains): markedly excellent antimicrobial activities
2 | CO[C@@H]1[C@@H](O[C@@H]2O[C@H](C)[C@@H](O[C@H]3C[C@@](C)(OC)[C@@H](OC(=O)CC(C)C)[C@H](C)O3)[C@H](N(C)C)[C@H]2O)[C@@H](CC=O)C[C@@H](C)[C@@H](O)/C=C/C=C/C[C@@H](C)OC(=O)C[C@H]1O [(58), 3"-O-methylleucomycin A1] | 0.05 (≈ 0.0625 µM) | 0.78 (≈ 0.975 µM) | 0.2 (≈ 0.25 µM) | 6.25 (≈ 7.81 µM) | < 0.025 | 0.39 (≈ 0.488 µM) | 0.2 (≈ 0.25 µM) | > 100 | > 100 | 0.2 (≈ 0.25 µM) | > 100 | 0.05 (≈ 0.0625 µM) | 0.2 (≈ 0.25 µM) | > 100 | 0.05 (≈ 0.0625 µM) | > 100 | 0.78 (≈ 0.975 µM) | 0.2 (≈ 0.25 µM) | 0.05 (≈ 0.0625 µM) | markedly strong microbial activities | –
3 | CCCCC(=O)O[C@H]1[C@H](C)O[C@@H](O[C@H]2[C@H](N(C)C)[C@@H](O)[C@H](O[C@H]3[C@@H](CC=O)C[C@@H](C)[C@@H](O)/C=C/C=C/C[C@@H](C)OC(=O)C[C@@H](O)[C@@H]3OC)O[C@@H]2C)C[C@@]1(C)OC [(48), 3"-O-methyl-4"-O-n-valerylleucomycin V] | 0.05 (≈ 0.0625 µM) | 0.78 (≈ 0.975 µM) | 0.2 (≈ 0.25 µM) | 6.25 (≈ 7.81 µM) | < 0.025 | 0.2 (≈ 0.25 µM) | 0.2 (≈ 0.25 µM) | > 100 | > 100 | 0.2 (≈ 0.25 µM) | > 100 | < 0.025 | 0.1 (≈ 0.125 µM) | > 100 | < 0.025 | > 100 | 0.78 (≈ 0.975 µM) | 0.2 (≈ 0.25 µM) | < 0.025 | markedly strong microbial activities | antimicrobial activities compared with compound (58) (test strains): slightly superior antimicrobial activities; antimicrobial activities in comparison with rokitamycin (test strains): markedly excellent antimicrobial activities
4 | CCC(=O)O[C@@H]1CC(=O)O[C@H](C)C/C=C/C=C/[C@H](O)[C@H](C)C[C@H](CC=O)[C@H](O[C@@H]2O[C@H](C)[C@@H](O[C@H]3C[C@@](C)(OC)[C@@H](O)[C@H](C)O3)[C@H](N(C)C)[C@H]2O)[C@H]1OC [(3), 3"-O-methylmidecamycin M1] | – | 0.78 (≈ 1.01 µM) | 0.78 (≈ 1.01 µM) | 50 (≈ 64.8 µM) | 0.1 (≈ 0.13 µM) | – | 0.78 (≈ 1.01 µM) | > 100 | > 100 | – | > 100 | 0.1 (≈ 0.13 µM) | – | > 100 | 0.2 (≈ 0.259 µM) | > 100 | – | – | 0.1 (≈ 0.13 µM) | strong antimicrobial activities | improvement of MIC values over corresponding compounds with free 3"-hydroxyl (midecamycin M1, leucomycin V) (test strains): improved two to three times; antimicrobial activities in comparison with midecamycin M1 (test strains; presumed in vivo metabolite of compound (5)): superior antimicrobial activities; MIC (S. aureus 209P JC-1; [3]): 0.39 µg/mL (≈ 0.505 µM); MIC (S. aureus M133; [2]): 1.56 µg/mL (≈ 2.02 µM); MIC (S. epidermidis ATCC14990; ATCC14990, 37° C., 20 hours, SDA with 5% horse blood, read-out: Antimicrobial activity (MIC)): 1.56 µg/mL (≈ 2.02 µM); MIC (B. catarrhalis W-0500; [7]): 3.13 µg/mL (≈ 4.05 µM); MIC (B. catarrhalis W-0506; [8]): 3.13 µg/mL (≈ 4.05 µM)
5 | CO[C@@H]1[C@@H](O[C@@H]2O[C@H](C)[C@@H](O[C@H]3C[C@@](C)(OC)[C@@H](O)[C@H](C)O3)[C@H](N(C)C)[C@H]2O)[C@@H](CC=O)C[C@@H](C)[C@@H](O)/C=C/C=C/C[C@@H](C)OC(=O)C[C@H]1O [(4), 3"-O-methylleucomycin V] | – | 0.78 (≈ 1.09 µM) | 0.39 (≈ 0.545 µM) | 12.5 (≈ 17.5 µM) | 0.05 (≈ 0.0698 µM) | 0.78 (≈ 1.09 µM) | 0.78 (≈ 1.09 µM) | > 100 | > 100 | 0.78 (≈ 1.09 µM) | > 100 | – | – | > 100 | – | > 100 | – | – | 0.05 (≈ 0.0698 µM) | strong antimicrobial activities | improvement of MIC values over corresponding compounds with free 3"-hydroxyl (midecamycin M1, leucomycin V) (test strains): improved two to three times; MIC (S. aureus 209P JC-1; [3]): 0.39 µg/mL (≈ 0.545 µM); MIC (S. pneumoniae IP692; [3]): 0.1 µg/mL (≈ 0.14 µM); MIC (B. catarrhalis W-0500; [7]): 1.56 µg/mL (≈ 2.18 µM); MIC (S. pyogenes Cook; 20 h, read-out: Antimicrobial activity (MIC), 37° C., 20 hours, SDA with 5% horse blood): 0.1 µg/mL (≈ 0.14 µM); MIC (B. catarrhalis W-0506; [8]): 1.56 µg/mL (≈ 2.18 µM)
